Assay results from patent publication US20220072013A1, “Pharmaceutical Combinations for the Treatment of Cancer” (CA*TX, Inc., priority 2018, published 2022).
Entries after “also recorded” stand apart in the source; their conditions may differ.

Experiments:
[1] = system: global DNA methylation of adenomas in Apc^Min/+ mice; assay: Anti-5-methylcytidine immunostaining of small intestine adenomas (global DNA methylation); format: in vivo
[2] = system: intestinal tumors in Apc^Min/+ mice; assay: Intestinal tumor development in Apc^Min/+ mice given drug-containing diets; format: in vivo; conditions: for decrease in tumor number: analyzed at 12 weeks; for change in tumor size: started before adenoma development (age 4 to 12 weeks)
Description: FIG. 1 illustrates the decrease in the number of intestinal tumors in Apc^Min/+ mice given Budesonide- or Sulindac-containing diets for 8 or 4 weeks (from age 4 weeks to age 12 weeks or age 8 weeks to age 12 weeks); bars show % change in tumor number compared to untreated C57BL/6 control mice.
FIG. 2 illustrates the change in size of intestinal tumors in Apc^Min/+ mice that were administered Budesonide- or Sulindac containing diets for 8 or 4 weeks (from age 4 weeks to age 12 weeks or age 8 weeks to age 12 weeks); bars show % change in tumor size compared to untreated C57BL/6 control mice.
Budesonide, a steroidal anti-inflammatory drug active against lung cancer development, was investigated as a drug for CRC. Budesonide was evaluated using the murine model for hereditary CRC (FAP) in humans—Apc^Min/+ mice—which, like FAP patients, carry a germline Apc mutation and which spontaneously develop multiple intestinal tumors. The effects of Budesonide were compared to Sulindac as the “gold standard” for an NSAID drug known to inhibit tumor development in Apc^Min mice. The Apc^Min/+ and control mice (C57BL6) were given Budesonide- or Sulindac-containing diets starting at 4 or 8 weeks of age (corresponding, respectively, to ages before and after intestinal tumor development). At 12 weeks, mice were sacrificed and intestines analyzed for adenomas. […] Without wishing to be bound by any particular theory, it is concluded that Budesonide has strong activity against the development of multiple tumors that would otherwise be induced by a variety of Apc mutations (combinations of inherited 1st hit and acquired 2nd hits), and also regression of many tumors after they had already developed.

HT29 (APC mutant) cells = assay: DNA methylation (epigenetic) profiling of HT29 cells; format: cell-based, human
Description: FIG. 5 illustrates that Budesonide increases DNA methylation in human CRC cells. To determine if Budesonide increases DNA methylation in human CRC cells, epigenetic profiling was done on HT29 (APC mutant) cells in response to Budesonide exposure. […] A statistically significant shift in CpG methylation occurred at 235 unique CpG sites (out of 1.9 M that were analyzed).

HT29 CRC cells = assay: Apoptosis in HT29 CRC cells; format: cell-based, human
survivin = assay: Survivin mRNA and protein expression in HT-29 cells (RT-PCR, western blot); format: cell-based, human; conditions: Sulindac 200 μM
Description: RNA and protein expression were measured by RT-PCR and western blot, respectively. FIGS. 3A and 3B show an ethidium bromide-stained gel and graph of quantified data for survivin and Bcl-2 mRNA expression. FIGS. 3C and 3D show a western blot and graph of quantified data for survivin and Bcl-2 protein expression.
Another mechanism attributed to Sulindac's antitumor effects is its ability to induce apoptosis and decrease cell proliferation. This mechanism appears to involve a COX-independent mechanism whereby Sulindac (and other NSAIDs) induce degradation of beta-catenin, inactivation of Tcf-4, reduced expression of an anti-apoptotic protein (survivin; FIG. 3) and increased apoptosis in human CRC cells. […] To that end, survivin and Bcl-2 expression was evaluated in HT-29 cells that were treated with Sulindac (200 μM). RNA and protein expression were measured by RT-PCR and western blot, respectively. FIGS. 3A and 3B show an ethidium bromide-stained gel and graph of quantified data for survivin and Bcl-2 mRNA expression.

[3] = diet started at 4 weeks of age, prior to establishment of intestinal adenomas
[4] = diet started at 8 weeks of age, after adenoma development

SMILES	5-methylcytidine immunostaining signal intensity, increase [1] [fold]	proportion of cells staining positive for 5-methylcytidine [1]	decrease in tumor number [2, 3] [%]	decrease in tumor number [2, 4] [%]	change in tumor size [2]	1 MB domains across the genome showing an increase in methylation versus control (HT29 (APC mutant) cells; Budesonide exposure) [%]	unique CpG sites with statistically significant shift in CpG methylation (HT29 (APC mutant) cells; out of 1.9 M sites analyzed)	apoptosis (HT29 CRC cells)	survivin expression (survivin)
CCCC1O[C@@H]2C[C@H]3[C@@H]4CCC5=CC(=O)C=C[C@]5(C)[C@H]4[C@@H](O)C[C@]3(C)[C@]2(C(=O)CO)O1 (stereo partly drawn) [Budesonide, budesonide]	1.9	increase	88	60	decreased	69.3	235	–	–
CC1=C(CC(=O)O)c2cc(F)ccc2/C1=C\c1ccc([S+](C)[O-])cc1 (stereo not drawn) [Sulindac]	–	–	90	90	decreased	–	–	induces apoptosis	monotonic decrease; also recorded: attenuates expression
